According to ChEMBL document CHEMBL1123349, “Analogues of 1,3-dipropyl-8-phenylxanthine: enhancement of selectivity at A1-adenosine receptors by aryl substituents” (J Med Chem, 1986):
Several values for one entry are separate records, joined by “and”; a condition that tells them apart may be missing. Equal entries are not always repeated.

Columns and labels:
Adenosine A2 receptor = Adenosine A2 receptor (Rattus norvegicus, UniProt P29276+P30543); experiment: Binding affinity against A2 adenosine receptors of the central nervous system; type: protein assay
[1] = target: Adenosine receptors; A1 & A2 (Rattus norvegicus) (UniProt P29276+P25099+P30543); experiment: Selectivity ratio was expressed as the ratio of binding affinity towards Adenosine A2 receptor to that of Adenosine A1 receptor in rat
Adenosine receptor A1 = target: T1, Adenosine receptor A1 (Rattus norvegicus, UniProt P25099); experiment: Binding affinity against A1 adenosine receptors of the central nervous system
T1 sequence (P25099 whole entry): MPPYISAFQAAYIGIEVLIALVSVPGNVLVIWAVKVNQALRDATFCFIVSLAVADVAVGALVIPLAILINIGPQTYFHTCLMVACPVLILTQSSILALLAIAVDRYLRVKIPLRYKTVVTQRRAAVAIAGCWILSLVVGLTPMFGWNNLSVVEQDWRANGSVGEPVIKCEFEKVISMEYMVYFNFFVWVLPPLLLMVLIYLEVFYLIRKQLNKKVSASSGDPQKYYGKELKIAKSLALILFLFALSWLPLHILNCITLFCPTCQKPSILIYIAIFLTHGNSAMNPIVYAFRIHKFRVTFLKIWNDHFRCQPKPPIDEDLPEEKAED

Ki (Adenosine A2 receptor) | Ratio [1] | Ki (Adenosine receptor A1) | Compound
13 nM | 2.8 | 4.6 nM | CCCn1c(=O)c2nc(-c3ccc(N)cc3N)[nH]c2n(CCC)c1=O
> 3000 nM | > 7 | 420 nM | CCCn1c(=O)c2nc(-c3ccc(Cl)cc3OC)[nH]c2n(CCC)c1=O
1000 nM | 400 |  | CCCn1c(=O)c2nc(-c3ccc(Cl)cc3N)[nH]c2n(CCC)c1=O
290 nM | 5.9 |  | CCCn1c(=O)c2nc(-c3ccc(F)cc3F)[nH]c2n(CCC)c1=O
3500 nM | 9.7 | 360 nM | CCCn1c(=O)c2nc(-c3cc(O)ccc3O)[nH]c2n(CCC)c1=O
140 nM | 3.9 |  | CCCn1c(=O)c2nc(-c3ccc(O)c(Cl)c3)[nH]c2n(CCC)c1=O

The remaining lines, values behind:

Compound | Ki (Adenosine A2 receptor) | Ratio [1] | Ki (Adenosine receptor A1)
CCCn1c(=O)c2nc(-c3ccc(N)cc3)[nH]c2n(CCC)c1=O | 28 nM | 1 | 27 nM
CCCn1c(=O)c2nc(-c3ccc(C(N)=O)cc3)[nH]c2n(CCC)c1=O | 72 nM and 55 nM |  | 7 nM and 25 nM
CCCn1c(=O)c2[nH]c(-c3ccc(OC)cc3O)nc2n(CCC)c1=O | 980 nM | 89 | 11 nM
CCCn1c(=O)c2nc(-c3ccc(S(=O)(=O)O)cc3)[nH]c2n(CCC)c1=O | 710 nM | 3.4 | 
CCCn1c(=O)c2nc(-c3cccc(O)c3O)[nH]c2n(CCC)c1=O | 210 nM | 6.4 | 33 nM
CCCn1c(=O)c2[nH]c(-c3ccc(O)c(Cl)c3)nc2n(CCC)c1=O |  |  | 36 nM
CCCn1c(=O)c2nc(-c3ccc(S(N)(=O)=O)cc3)[nH]c2n(CCC)c1=O | 115 nM | 15 | 8.5 nM
CCCn1c(=O)c2[nH]c(-c3ccc(O)cc3O)nc2n(CCC)c1=O |  |  | 15 nM
CCCn1c(=O)c2nc(-c3ccc(N(C)C)cc3)[nH]c2n(CCC)c1=O | 100 nM | 2.2 | 45 nM
CCCn1c(=O)c2nc(-c3ccc(OC(C)=O)cc3)[nH]c2n(CCC)c1=O | 12 nM | 1.5 | 8 nM
CCCn1c(=O)c2nc(-c3ccc(OC)cc3)[nH]c2n(CCC)c1=O |  |  | 14 nM
CCCn1c(=O)c2[nH]c(-c3ccc(F)cc3F)nc2n(CCC)c1=O |  |  | 51 nM
